Active and inactive are the calls of the source. The rule behind the calls is not given here.
Assays:
[1] = Inhibition of elastase at 45.5 uM
[2] = target: Prothrombin (Homo sapiens) (UniProt P00734); assay: Inhibition of thrombin at 45.5 uM
[3] = Inhibition of trypsin at 45.5 uM
[4] = Inhibition of chymotrypsin
[5] = system: HCT-116; assay: Cytotoxicity against human HCT116 cells at 1.6 uM; format: functional, cell-based
[6] = target: T1, Aminopeptidase N (Bos taurus) (UniProt P79098); assay: Inhibition of bovine amino peptidase N at 45.5 uM
T1 sequence (whole entry): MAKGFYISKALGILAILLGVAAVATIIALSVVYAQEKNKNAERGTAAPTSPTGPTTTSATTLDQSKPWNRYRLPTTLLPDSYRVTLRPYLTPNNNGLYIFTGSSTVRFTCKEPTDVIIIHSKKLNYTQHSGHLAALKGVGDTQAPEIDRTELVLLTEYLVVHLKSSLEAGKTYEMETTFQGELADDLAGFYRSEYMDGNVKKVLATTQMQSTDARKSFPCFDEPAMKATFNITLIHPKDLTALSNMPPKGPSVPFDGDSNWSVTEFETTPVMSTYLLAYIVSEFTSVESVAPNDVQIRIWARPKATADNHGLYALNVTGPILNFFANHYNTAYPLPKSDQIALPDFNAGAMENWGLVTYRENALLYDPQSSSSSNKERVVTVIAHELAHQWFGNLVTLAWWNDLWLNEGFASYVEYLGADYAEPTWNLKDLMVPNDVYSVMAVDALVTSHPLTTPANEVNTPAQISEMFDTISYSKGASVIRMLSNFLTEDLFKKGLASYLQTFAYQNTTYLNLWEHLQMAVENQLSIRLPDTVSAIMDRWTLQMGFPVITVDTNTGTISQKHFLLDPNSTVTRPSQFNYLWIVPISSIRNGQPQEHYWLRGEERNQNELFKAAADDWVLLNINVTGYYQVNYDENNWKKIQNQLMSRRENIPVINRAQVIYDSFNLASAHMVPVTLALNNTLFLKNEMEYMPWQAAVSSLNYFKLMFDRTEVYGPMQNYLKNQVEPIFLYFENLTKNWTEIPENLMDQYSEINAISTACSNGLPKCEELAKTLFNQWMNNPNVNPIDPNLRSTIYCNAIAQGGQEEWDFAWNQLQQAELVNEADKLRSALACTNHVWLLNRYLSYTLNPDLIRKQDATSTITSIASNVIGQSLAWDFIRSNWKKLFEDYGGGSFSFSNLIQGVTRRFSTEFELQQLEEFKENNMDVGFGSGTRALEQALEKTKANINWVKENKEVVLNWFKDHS

[7] = Inhibition of chymotrypsin at 45.5 uM
[8] = Inhibition of trypsin
[9] = target: Prothrombin (Homo sapiens) (UniProt P00734); assay: Induction of thrombin activity at 45.5 uM

| inhibition [1] | inhibition [2] | inhibition [3] | IC50 [4] [µM] | inhibition [6] | inhibition [7] | IC50 [8] [µM] | Activity [9] [%] | Compound | Activity [5] |
| --- | --- | --- | --- | --- | --- | --- | --- | --- | --- |
| inactive | inactive | inactive | 0.26 |  |  |  |  | CC[C@@H](C)[C@H]1C(=O)N(C)[C@@H](Cc2ccccc2)C(=O)N[C@@H](C(C)C)C(=O)O[C@H](C)[C@H](NC(=O)[C@H](CCC(N)=O)NC(=O)[C@H](O)Cc2ccc(O)cc2)C(=O)N[C@@H](Cc2ccc(O)cc2)C(=O)N[C@H]2CC[C@@H](O)N1C2=O (relative stereo) |  |
|  | inactive | inactive |  | inactive |  |  |  | CC(OC(=O)C(CCCNC(=N)N)[N+](C)(C)C)C(OS(=O)(=O)[O-])c1ccc(OS(=O)(=O)O)c(COS(=O)(=O)O)c1 (stereo not drawn) | inactive |
| inactive |  |  |  |  | inactive | 1.9 | 30 | N=C(N)NCCCCNC(=O)[C@H]1C[C@H]2CC[C@@H](O)C[C@H]2N1C(=O)[C@@H](Cc1ccccc1)NC(=O)[C@@H](O)Cc1ccc(O)cc1 |  |
| inactive | inactive |  |  |  | inactive | 45.5 |  | CC(=O)O[C@@H]1CC[C@@H]2C[C@H](C(N)=O)N(C(=O)[C@@H](Cc3ccc(O)cc3)NC(=O)[C@@H](O)Cc3ccc(O)cc3)[C@@H]2C1 |  |
| inactive | inactive |  |  |  | inactive | 45.5 |  | CC(C)C[C@@H](NC(=O)[C@H](O)Cc1ccc(O)cc1)C(=O)N[C@@H](Cc1ccccc1)C(=O)NCCCCNC(=N)N |  |
| inactive | < 50% |  |  |  | inactive | 1.3 |  | N=C(N)NCCCCNC(=O)[C@H]1C[C@H]2CC[C@@H](O)C[C@H]2N1C(=O)[C@@H](Cc1ccccc1)NC(=O)[C@H](O)Cc1ccc(O)cc1 |  |
| inactive | < 50% |  |  |  | inactive | 19.9 |  | CC(=O)O[C@H](Cc1ccc(O)cc1)C(=O)N[C@H](Cc1ccccc1)C(=O)N1[C@@H](C(=O)NCCCCNC(=N)N)C[C@H]2CC[C@@H](O)C[C@H]21 |  |

Reference: ChEMBL document CHEMBL2010676, “Metabolites of Microcystis aeruginosa bloom material from Lake Kinneret, Israel” (J Nat Prod, 2012)
